From patent US7902200B2, “Chemical compounds” (AstraZeneca AB, priority 2006, dated 2011)
pEC50: −log10 of the molar value.

Experiments:
[1] = molecular target: T1, recombinant human pancreatic GLK (Homo sapiens, UniProt P35557); experiment: GKH1 variant of GLK enzymatic activity assay (manual bench-top rate assay); assay type: biochemical; conditions: activation of GLK; 60 nmol/l GLK; rate over 5 minute window; no GLKRP
T1 construct: 6-His (N); made in house; host or cells: E. coli BL21
T1 sequence (P35557 1-465): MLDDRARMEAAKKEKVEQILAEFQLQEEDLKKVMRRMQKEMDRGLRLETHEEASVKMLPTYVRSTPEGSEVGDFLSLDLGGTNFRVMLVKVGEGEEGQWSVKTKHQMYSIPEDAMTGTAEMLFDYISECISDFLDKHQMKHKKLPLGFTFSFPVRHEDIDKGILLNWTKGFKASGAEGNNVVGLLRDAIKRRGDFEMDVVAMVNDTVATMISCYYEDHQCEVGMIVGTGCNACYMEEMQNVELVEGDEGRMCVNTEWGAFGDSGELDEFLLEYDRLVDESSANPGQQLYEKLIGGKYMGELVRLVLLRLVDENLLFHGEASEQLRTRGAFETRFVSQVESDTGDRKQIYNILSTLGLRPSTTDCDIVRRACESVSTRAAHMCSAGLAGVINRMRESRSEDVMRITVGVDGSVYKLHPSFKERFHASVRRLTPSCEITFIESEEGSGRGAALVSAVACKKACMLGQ
Procedure: (§1) Enzymatic activity of recombinant human pancreatic GLK may be measured by incubating GLK, ATP and glucose. The rate of product formation may be determined by coupling the assay to a G-6-P dehydrogenase, NADP/NADPH system and measuring the linear increase with time of optical density at 340 nm (Brocklehurst et al (Diabetes 2004, 53, 535-541). Activation of GLK by compounds can be assessed using this assay in the presence or absence of GLKRP as described in Brocklehurst et al (Diabetes 2004, 53, 535-541).
(§2) One or both of two variants of this assay, GKH1 and GKH4, were used to test the compounds of the invention. The GKH1 assay is a manual, bench-top rate assay using 60 nmol/l of recombinant human pancreatic GLK. The GLK activity rate is measured over a 5 minute window using a Multiskan Ascent spectrophotometer. The GKH4 assay is an automated end-point assay using 10 nmol/l of recombinant human pancreatic GLK. The GLK activity is measured at 10 minutes after the initiation of the assay on a Perkin Elmer Envision spectrophotometer.

[2] = molecular target: T1, recombinant human pancreatic GLK; experiment: GKH4 variant of GLK enzymatic activity assay (automated end-point assay); assay type: biochemical; conditions: activation of GLK; 10 nmol/l GLK; end-point at 10 minutes; no GLKRP
Procedure: as §1, §2

Row | Compound | pEC50 [1] | pEC50 [2]
1 | Cc1cnc(NC(=O)c2cc(Oc3ccc(C(=O)N4CCC4)nc3)cc(O[C@@H]3CCN(C4CCC4)C3=O)c2)cn1 [Example 20, 3-[6-(Azetidine-1-carbonyl)pyridin-3-yl]oxy-5-[(3R)-1-cyclobutyl-2-oxo-pyrrolidin-3-yl]oxy-N-(5-methylpyrazin-2-yl)benzamide] | 6.38 | 6.05
2 | Cc1cnc(NC(=O)c2cc(Oc3ccc(C(=O)N4CCC4)nc3)cc(O[C@H]3CCN(C4CCC4)C3=O)c2)cn1 [Example 21, 3-[6-(Azetidine-1-carbonyl)pyridin-3-yl]oxy-5-[(3S)-1-cyclobutyl-2-oxo-pyrrolidin-3-yl]oxy-N-(5-methylpyrazin-2-yl)benzamide] | 6.68 | 5.95
3 | CCN1CC[C@@H](Oc2cc(Oc3ccc(C(=O)N4CCC4)nc3)cc(C(=O)Nc3cnc(C)cn3)c2)C1=O [Example 22, -[6-(Azetidine-1-carbonyl)pyridin-3-yl]oxy-5-[(3R)-1-ethyl-2-oxo-pyrrolidin-3-yl]oxy-N-(5-methylpyrazin-2-yl)benzamide] | 5.63 | 5.18
4 | CCN1CC[C@H](Oc2cc(Oc3ccc(C(=O)N4CCC4)nc3)cc(C(=O)Nc3cnc(C)cn3)c2)C1=O [Example 23, 3-[6-(Azetidine-1-carbonyl)pyridin-3-yl]oxy-5-[(3S)-1-ethyl-2-oxo-pyrrolidin-3-yl]oxy-N-(5-methylpyrazin-2-yl)benzamide] | 7.30 | 6.66
5 | CN1CC[C@H](Oc2cc(Oc3ccc4c(c3)OCCCS4(=O)=O)cc(C(=O)Nc3cc[nH]n3)c2)C1=O [Example 25, 3-[(2,2-Dioxo-6-oxa-2-λ^6-thiabicyclo[5.4.0]undeca-7,9,11-trien-9-yl)oxy]-5-[(3S)-1-methyl-2-oxo-pyrrolidin-3-yl]oxy-N-(1H-pyrazol-3-yl)benzamide] | 7.52 | 7.40

Further compounds by rising pEC50 [1], results first:

Row | pEC50 [1] | pEC50 [2] | Compound
6 | 5.48 | 5.14 | Cc1cnc(NC(=O)c2cc(Oc3ccc(C(=O)N4CCC4)nc3)cc(O[C@@H]3CCN(C4CC4)C3=O)c2)cn1 [Example 18, 3-[6-(Azetidine-1-carbonyl)pyridin-3-yl]oxy-5-[(3R)-1-cyclopropyl-2-oxo-pyrrolidin-3-yl]oxy-N-(5-methylpyrazin-2-yl)benzamide]
7 | 6.37 | 6.77 | CN1CC[C@H](Oc2cc(Oc3ccc(C(=O)N4CCC4)nc3)cc(C(=O)Nc3ccccn3)c2)C1=O [Example 13, 3-[6-(Azetidine-1-carbonyl)pyridin-3-yl]oxy-5-[(3S)-1-methyl-2-oxo-pyrrolidin-3-yl]oxy-N-pyridin-2-yl-benzamide]
8 | 6.82 | 6.24 | Cc1cnc(NC(=O)c2cc(Oc3cnc(C(=O)N(C)C)cn3)cc(O[C@H]3CCN(C)C3=O)c2)cn1 [Example 24, N,N-Dimethyl-5-[3-[(3S)-1-methyl-2-oxo-pyrrolidin-3-yl]oxy-5-[(5-methylpyrazin-2-yl)carbamoyl]phenoxy]pyrazine-2-carboxamide]
9 | 7.00 | 6.46 | Cc1cnc(NC(=O)c2cc(Oc3ccc4c(c3)OCN(C)C4=O)cc(O[C@H]3CCN(C)C3=O)c2)cn1 [Example 15, 3-[(4-Methyl-5-oxo-2-oxa-4-azabicyclo[4.4.0]deca-6,8,10-trien-9-yl)oxy]-5-(1-methyl-2-oxo-pyrrolidin-3-yl)oxy-N-(5-methylpyrazin-2-yl)benzamide]
